The results in this text go back to ChEMBL document CHEMBL1201862, “PubChem BioAssay data set” (2004).

Among the test systems are Hs-578T; DU-145; MDA-N; SNB-78; SF-539; SF-295; PC-3; ACHN; SR; UO-31; OVCAR-8; Malme-3M; NCI-H522; UACC-62; UACC-257; CCRF-CEM; U-251; NCI-H226; K562; CAKI-1.
Holding throughout (experiment): NCI-60 cell line screen, 48 h

SMILES strings stand for the structures.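 Test compounds were applied to cells in 96-well plates for 48 hours at 5 doses. The concentration for 50% growth inhibition is given as GI50.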 Calls of active or inactive are those of the source. Cut-off read from the data, not from the text of the source: active = GI50 up to about 1.1 µM and inactive = higher. Where only a bound is given, the exact number is not on record here.

For the compound `COc1ccc2c(c1)c1c(C)c3cnccc3c(C)c1n2CCCN`, the GI50 was 277 nM (active) with Hs-578T; 60.3 nM (active) in the assay on DU-145; 114 nM (active) in the assay with MDA-N; 286 nM (active) with SNB-78; 405 nM (active) with SF-539; 257 nM (active) in the assay on SF-295. Moreover, the GI50 was 71.5 nM (active) in the assay on PC-3; 124 nM (active) in the assay with ACHN; < 10 nM (active) in the assay with SR; 524 nM (active) in the assay with UO-31; 178 nM (active) in the assay on OVCAR-8; 681 nM (active) in the assay with Malme-3M. The GI50 with NCI-H522 is 313 nM (active); in the assay with UACC-62, 410 nM (active); in the assay with UACC-257, 518 nM (active).

Consider `CN(C)CCCNc1ccc2ncn3c4ccc(O)cc4c(=O)c1c23`, for which the GI50 with Hs-578T was 541 nM (active); with DU-145, 638 nM (active); in the assay on MDA-N, 4480 nM (inactive); in the assay on SNB-78, 9730 nM (inactive); with CCRF-CEM, 218 nM (active); in the assay with SF-539, 506 nM (active). The GI50 in the assay with SF-295 was 708 nM (active); in the assay with PC-3 it was 1830 nM (inactive); in the assay with U-251, 203 nM (active); in the assay on ACHN, 158 nM (active); in the assay with SR, < 18.9 nM (active); with UO-31 it was 1350 nM (inactive). Besides, the GI50 is 1070 nM (active) with OVCAR-8; 483 nM (active) with NCI-H226; 1350 nM (inactive) in the assay with K562; 195 nM (active) in the assay with CAKI-1; 2830 nM (inactive) in the assay on Malme-3M; 252 nM (active) in the assay with NCI-H522. The GI50 in the assay on UACC-62 is 1200 nM (inactive); in the assay on UACC-257, 8090 nM (inactive).
